Values of other authors, collected in patent US20140316796A1, “SYSTEMS, METHODS, AND COMPUTER-READABLE MEDIA FOR LIMITED DISTRIBUTION OF SPECIALTY DRUG USING A COMPUTER HUB OPERATING AT A SINGLE ACCESS POINT” (Jazz Pharmaceuticals, priority 2013, published 2014).

Details: pH 4

SMILES: CSCC[C@@H]1NC(=O)[C@H](CC(C)C)NC(=O)[C@H](CCCNC(=N)N)NC(=O)[C@H](CO)NC(=O)[C@@H]2CSSC[C@@H]3NC(=O)[C@H](CO)NC(=O)CNC(=O)[C@H]([C@@H](C)O)NC(=O)[C@H](CSSC[C@H](N)C(=O)N[C@@H](CCCCN)C(=O)NCC(=O)N[C@@H](CCCCN)C(=O)NCC(=O)N[C@@H](C)C(=O)N[C@@H](CCCCN)C(=O)N2)NC(=O)[C@H](CSSC[C@@H](C(N)=O)NC(=O)[C@H](CCCCN)NC(=O)CNC(=O)[C@H](CO)NC(=O)[C@H](CCCNC(=N)N)NC3=O)NC(=O)[C@H](CC(=O)O)NC(=O)[C@H](Cc2ccc(O)cc2)NC1=O [ziconotide]
- solution stability: stable at 45 °C for weeks
